Laboratory results from PubChem BioAssay AID2060621 (Molecular Pharmacology Branch, DTP, NCI, 2025).

System: 324938-238-R-J1-PDC complex spheroids viability
Test: Anticancer human tumor 324938-238-R-J1-PDC patient-derived bladder carcinoma cell line growth inhibition [CLK]
Conditions: for IC50: curve of first compound; for viability, T/C: stronger effect = lower value
Outline: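 Multi-cell-type spheroids combined patient-derived tumor cells with HUVEC endothelial cells and human mesenchymal stem cells. Paired agents were dosed in half-log steps down from about clinical Cmax, or from 10 microM where Cmax was unknown.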

[1] = second compound 0.0316 µM, first compound 0.0316 µM
[2] = second compound 0.0316 µM, first compound 0.1 µM
[3] = second compound 0.1 µM, first compound 0.0316 µM
[4] = second compound 0.1 µM, first compound 0.1 µM
[5] = second compound 0.316 µM, first compound 0.0316 µM
[6] = second compound 0.316 µM, first compound 0.1 µM
[7] = second compound 1 µM, first compound 0.0316 µM
[8] = second compound 1 µM, first compound 0.1 µM
[9] = second compound 3.16 µM, first compound 0.0316 µM
[10] = second compound 3.16 µM, first compound 0.1 µM
[11] = second compound 10 µM, first compound 0.0316 µM
[12] = second compound 10 µM, first compound 0.1 µM
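Note: viability read after seven days of drug exposure.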
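Throughout, for viability, T/C: 100% = DMSO vehicle control wells.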

Nc1ccccc1NC(=O)c1ccc(CNC(=O)OCc2cccnc2)cc1 + CNC(=O)c1ccc(Nc2nc(OC3CCCC3)c3c(-c4ccc5nc(C)oc5c4)c[nH]c3n2)c(OC)c1 was tested, and the IC50 (second compound 0.0316 µM) was 1470 nM, the IC50 (second compound 0.1 µM) was < 31.6 nM and the IC50 (second compound 0.316 µM) was < 31.6 nM. For the same compound, the IC50 (second compound 1 µM) was < 31.6 nM, the IC50 (second compound 3.16 µM) was < 31.6 nM and the IC50 (second compound 10 µM) was < 31.6 nM. The viability, T/C [1] was 78.2%, the viability, T/C [2] was 91.8% and the viability, T/C (second compound 0.0316 µM, first compound 0.316 µM) was 69%. The viability, T/C (second compound 0.0316 µM, first compound 1 µM) was 57.2%, the viability, T/C (second compound 0.0316 µM, first compound 3.16 µM) was 35% and the viability, T/C (second compound 0.0316 µM, first compound 10 µM) was 5.41%. For the same compound, the viability, T/C [3] was 31.1%, the viability, T/C [4] was 32.7% and the viability, T/C (second compound 0.1 µM, first compound 0.316 µM) was 30.4%. For the same compound, the viability, T/C (second compound 0.1 µM, first compound 1 µM) was 34%, the viability, T/C (second compound 0.1 µM, first compound 3.16 µM) was 32.6% and the viability, T/C (second compound 0.1 µM, first compound 10 µM) was 4.92%. The viability, T/C [5] was 15.1%, the viability, T/C [6] was 17% and the viability, T/C (second compound 0.316 µM, first compound 0.316 µM) was 15.8%. It also gave a viability, T/C (second compound 0.316 µM, first compound 1 µM) of 23.2%, a viability, T/C (second compound 0.316 µM, first compound 3.16 µM) of 26.1% and a viability, T/C (second compound 0.316 µM, first compound 10 µM) of 3.89%. The viability, T/C [7] was 14.2%, the viability, T/C [8] was 14.6% and the viability, T/C (second compound 1 µM, first compound 0.316 µM) was 16.7%. The viability, T/C (second compound 1 µM, first compound 1 µM) was 23.7%, the viability, T/C (second compound 1 µM, first compound 3.16 µM) was 26.2% and the viability, T/C (second compound 1 µM, first compound 10 µM) was 2.44%. For the same compound, the viability, T/C [9] was 13%, the viability, T/C [10] was 15.2% and the viability, T/C (second compound 3.16 µM, first compound 0.316 µM) was 18.6%. It also gave a viability, T/C (second compound 3.16 µM, first compound 1 µM) of 18.9%, a viability, T/C (second compound 3.16 µM, first compound 3.16 µM) of 26.2% and a viability, T/C (second compound 3.16 µM, first compound 10 µM) of 2.46%. The viability, T/C [11] was 15.2%, the viability, T/C [12] was 17.1% and the viability, T/C (second compound 10 µM, first compound 0.316 µM) was 19%. It also gave a viability, T/C (second compound 10 µM, first compound 1 µM) of 20.7%, a viability, T/C (second compound 10 µM, first compound 3.16 µM) of 25.8% and a viability, T/C (second compound 10 µM, first compound 10 µM) of 2.14%.

For C=CC(=O)Nc1cc(Nc2nccc(-c3cn(C)c4ccccc34)n2)c(OC)cc1N(C)CCN(C)C + CN1CCN(c2cc(C(=O)Nc3cc4cc(-c5cnn(C)c5)ccc4cn3)ccn2)CC1, the IC50 (second compound 0.0316 µM) was 69.5 nM, the IC50 (second compound 0.1 µM) was 6.25 nM and the IC50 (second compound 0.316 µM) was < 0.949 nM. The IC50 (second compound 1 µM) was < 0.949 nM, the IC50 (second compound 3.16 µM) was < 0.949 nM and the IC50 (second compound 10 µM) was < 0.949 nM. It also gave a viability, T/C (second compound 0.0316 µM, first compound 0.000949 µM) of 80%, a viability, T/C (second compound 0.0316 µM, first compound 0.003 µM) of 77.5% and a viability, T/C (second compound 0.0316 µM, first compound 0.00949 µM) of 69.7%. The viability, T/C (second compound 0.0316 µM, first compound 0.03 µM) was 66.3%, the viability, T/C (second compound 0.0316 µM, first compound 0.0949 µM) was 43.7% and the viability, T/C (second compound 0.0316 µM, first compound 0.3 µM) was 25.3%. For the same compound, the viability, T/C (second compound 0.1 µM, first compound 0.000949 µM) was 60.3%, the viability, T/C (second compound 0.1 µM, first compound 0.003 µM) was 48.5% and the viability, T/C (second compound 0.1 µM, first compound 0.00949 µM) was 51%. It also gave a viability, T/C (second compound 0.1 µM, first compound 0.03 µM) of 39%, a viability, T/C (second compound 0.1 µM, first compound 0.0949 µM) of 33% and a viability, T/C (second compound 0.1 µM, first compound 0.3 µM) of 19.1%. It also gave a viability, T/C (second compound 0.316 µM, first compound 0.000949 µM) of 19.7%, a viability, T/C (second compound 0.316 µM, first compound 0.003 µM) of 22.8% and a viability, T/C (second compound 0.316 µM, first compound 0.00949 µM) of 20.9%. The viability, T/C (second compound 0.316 µM, first compound 0.03 µM) was 21.8%, the viability, T/C (second compound 0.316 µM, first compound 0.0949 µM) was 17.1% and the viability, T/C (second compound 0.316 µM, first compound 0.3 µM) was 15.7%. It also gave a viability, T/C (second compound 1 µM, first compound 0.000949 µM) of 1.22%, a viability, T/C (second compound 1 µM, first compound 0.003 µM) of 1.22% and a viability, T/C (second compound 1 µM, first compound 0.00949 µM) of 1.43%. For the same compound, the viability, T/C (second compound 1 µM, first compound 0.03 µM) was 1.11%, the viability, T/C (second compound 1 µM, first compound 0.0949 µM) was 1.21% and the viability, T/C (second compound 1 µM, first compound 0.3 µM) was 0.28%. The viability, T/C (second compound 3.16 µM, first compound 0.000949 µM) was 0.13%, the viability, T/C (second compound 3.16 µM, first compound 0.003 µM) was 0.13% and the viability, T/C (second compound 3.16 µM, first compound 0.00949 µM) was 0.19%. The viability, T/C (second compound 3.16 µM, first compound 0.03 µM) was 0.14%, the viability, T/C (second compound 3.16 µM, first compound 0.0949 µM) was 0.11% and the viability, T/C (second compound 3.16 µM, first compound 0.3 µM) was 0.16%. It also gave a viability, T/C (second compound 10 µM, first compound 0.000949 µM) of 0.15%, a viability, T/C (second compound 10 µM, first compound 0.003 µM) of 0.16% and a viability, T/C (second compound 10 µM, first compound 0.00949 µM) of 0.21%. The viability, T/C (second compound 10 µM, first compound 0.03 µM) was 0.16%, the viability, T/C (second compound 10 µM, first compound 0.0949 µM) was 0.18% and the viability, T/C (second compound 10 µM, first compound 0.3 µM) was 0.21%.

With Cn1ncnc1[C@H]1c2n[nH]c(=O)c3cc(F)cc(c23)N[C@@H]1c1ccc(F)cc1 + CNC(=O)c1ccc(Nc2nc(OC3CCCC3)c3c(-c4ccc5nc(C)oc5c4)c[nH]c3n2)c(OC)c1 the IC50 (second compound 0.0316 µM) was 11.9 nM, the IC50 (second compound 0.1 µM) was < 0.316 nM and the IC50 (second compound 0.316 µM) was < 0.316 nM. For the same compound, the IC50 (second compound 1 µM) was < 0.316 nM, the IC50 (second compound 3.16 µM) was < 0.316 nM and the IC50 (second compound 10 µM) was < 0.316 nM. The viability, T/C (second compound 0.0316 µM, first compound 0.000316 µM) was 83%, the viability, T/C (second compound 0.0316 µM, first compound 0.001 µM) was 89.5% and the viability, T/C (second compound 0.0316 µM, first compound 0.00316 µM) was 66.3%. It also gave a viability, T/C (second compound 0.0316 µM, first compound 0.01 µM) of 54.8%, a viability, T/C [1] of 35.1% and a viability, T/C [2] of 26.6%. The viability, T/C (second compound 0.1 µM, first compound 0.000316 µM) was 26.2%, the viability, T/C (second compound 0.1 µM, first compound 0.001 µM) was 26.5% and the viability, T/C (second compound 0.1 µM, first compound 0.00316 µM) was 21.8%. For the same compound, the viability, T/C (second compound 0.1 µM, first compound 0.01 µM) was 21%, the viability, T/C [3] was 20.4% and the viability, T/C [4] was 20.7%. The viability, T/C (second compound 0.316 µM, first compound 0.000316 µM) was 17.8%, the viability, T/C (second compound 0.316 µM, first compound 0.001 µM) was 20.8% and the viability, T/C (second compound 0.316 µM, first compound 0.00316 µM) was 16.7%. The viability, T/C (second compound 0.316 µM, first compound 0.01 µM) was 18.7%, the viability, T/C [5] was 19.8% and the viability, T/C [6] was 17.4%. It also gave a viability, T/C (second compound 1 µM, first compound 0.000316 µM) of 16.5%, a viability, T/C (second compound 1 µM, first compound 0.001 µM) of 15.4% and a viability, T/C (second compound 1 µM, first compound 0.00316 µM) of 14.7%. It also gave a viability, T/C (second compound 1 µM, first compound 0.01 µM) of 13.9%, a viability, T/C [7] of 14.8% and a viability, T/C [8] of 15.9%. It also gave a viability, T/C (second compound 3.16 µM, first compound 0.000316 µM) of 17.5%, a viability, T/C (second compound 3.16 µM, first compound 0.001 µM) of 19.6% and a viability, T/C (second compound 3.16 µM, first compound 0.00316 µM) of 15.4%. It also gave a viability, T/C (second compound 3.16 µM, first compound 0.01 µM) of 17%, a viability, T/C [9] of 18% and a viability, T/C [10] of 15.4%. The viability, T/C (second compound 10 µM, first compound 0.000316 µM) was 18.2%, the viability, T/C (second compound 10 µM, first compound 0.001 µM) was 18.8% and the viability, T/C (second compound 10 µM, first compound 0.00316 µM) was 18.9%. It also gave a viability, T/C (second compound 10 µM, first compound 0.01 µM) of 17.8%, a viability, T/C [11] of 18.7% and a viability, T/C [12] of 17.3%.
